Values quoted from earlier work in patent publication US10864334B2, “Nasal delivery” (OptiNose AS, priority 2006, dated 2020).
Read-outs that look alike come from different tables or passages of the source.

Assays:
[1] = in vivo
[2] = intranasal; aqueous spray versus nasal drops; systemic bio-availability

SMILES | bio-availability of the nasal spray formulation relative to the nasal drop formulation [1] | bio-availability of the nasal spray formulation relative to the nasal drop formulation [2]
NC(=O)CC[C@@H]1NC(=O)[C@H](Cc2ccccc2)NC(=O)[C@H](Cc2ccc(O)cc2)NC(=O)CCSSC[C@@H](C(=O)N2CCC[C@H]2C(=O)N[C@H](CCCN=C(N)N)C(=O)NCC(N)=O)NC(=O)[C@H](CC(N)=O)NC1=O [desmopressin] | two to three times higher | –
CCC(=O)O[C@]1(C(=O)SCF)[C@H](C)C[C@H]2[C@@H]3C[C@H](F)C4=CC(=O)C=C[C@]4(C)[C@@]3(F)[C@@H](O)C[C@@]21C [fluticasone propionate] | – | about eight times higher
